Experimental data reported in patent US8481495B2 (TetraLogic Pharmaceuticals Corporation, priority 2009, dated 2013).

Experiments:
[1] = tested on: SK-OV-3 cells; assay: MTT cell growth inhibition assay in ovarian cancer cell line SK-OV-3; assay type: cell-based; conditions: Homo sapiens, 72 hrs incubation, read-out: SKOV3, nM (CC50, concentration giving 50% cell survival, as range)
Protocol: Compounds of the invention also were tested for their ability to inhibit the growth of an ovarian cancer cell line, SK-OV-3. A known assay previously used for measuring cell growth (as described in Hansen, M. B., Nielsen, S. E., and Berg, K. (1989) J. Immunol. Methods 119, 203-210 and incorporated herein by reference in its entirety) was used. Briefly, SK-OV-3 cells are seeded in 96-well plates in McCoy's medium containing 10% fetal bovine serum albumin (5,000 per well) and incubated overnight at 37° C. The next day, test compounds are added at various concentrations (0.003-10 μM) and the plates are incubated at 37° C. for an additional 72 hrs. This incubation time was considered to be optimal for measuring inhibitory effects of the different compounds tested. 50 microliters of 5 mg/mL MTT reagent is added to each well and the plates are incubated at 37° C. for another three (3) hours. At the end of the three (3) hour incubation period, 50 microliters of DMSO is added to each well to dissolve cells and the optical density (OD) of the wells is measured with a microplate reader (Victor^2 1420™, Wallac, Finland) at 535 nm. Cell survival (CS) was calculated using the following equation: CS=(OD treated well/mean OD control wells)×100%.
The CC50 (reported in the following tables), is defined as the drug concentration that results in 50% cell survival (CS), and is derived by calculating the point where the dose-response curve crosses the 50% CS point using GraphPad Prism® graphing software. The reported CC50 values are supplied as ranges (A=<0.1 μM, B=0.1 μM to 1 μM, C=>1 μM to 10 μM, D=>10 μM).

[2] = target: T1, XIAP BIR-3 (Homo sapiens, UniProt P98170); assay: Fluorescence polarization binding to XIAP BIR-3 with labeled peptide AbuRPF-K(5-Fam)-NH2; conditions: XIAP BIR-3, 40 nM BIR3, 5 nM labeled peptide, 15 min RT, pH 7.5; read-out: XIAP, nM (binding affinity KD, as range)
T1 construct: 40 nM of the respective IAP BIR3
Protocol: (§1) The binding affinities of the compounds are reported as a KD value (μM). Briefly, various concentrations of test peptides were mixed with 5 nM of the fluorescently labeled peptide (i.e., a mutated N-terminal Smac peptide-AbuRPF-K(5-Fam)-NH2) and 40 nM of the respective IAP BIR3 for 15 min at RT in […] of 0.1M Potassium Phosphate buffer, pH 7.5 containing […] bovine g-globulin. Following incubation, the polarization values (mP) were measured on a Victor2V™ (available from PerkinElmer® Life Sciences) using a 485 nm excitation filter and a 520 nm emission filter. The reported binding affinities (KD values) are supplied as ranges (A=<0.1 μM, B=0.1 μM to 1 μM, C=>1 μM to 10 μM, D=>10 μM).

[3] = target: T2, cIAP-1 BIR-3 (Homo sapiens, UniProt Q13490); assay: Fluorescence polarization binding to cIAP-1 BIR-3 with labeled peptide AbuRPF-K(5-Fam)-NH2; conditions: cIAP-1 BIR-3, 40 nM BIR3, 5 nM labeled peptide, 15 min RT, pH 7.5; read-out: cIAP1, nM (binding affinity KD, as range)
T2 construct: 40 nM of the respective IAP BIR3
Protocol: as §1

T1 sequence (P98170 241-356 limits assumed): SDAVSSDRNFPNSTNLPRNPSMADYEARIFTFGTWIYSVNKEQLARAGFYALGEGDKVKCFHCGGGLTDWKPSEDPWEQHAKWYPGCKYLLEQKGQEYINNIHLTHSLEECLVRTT
T2 sequence (Q13490 253-363 limits assumed): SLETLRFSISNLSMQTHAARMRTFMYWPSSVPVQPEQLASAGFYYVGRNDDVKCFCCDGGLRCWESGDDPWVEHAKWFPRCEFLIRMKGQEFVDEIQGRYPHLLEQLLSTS

Structure (SMILES) | Kd [2] [nM] | Kd [3] [nM] | CC50 [1] [nM]
CN[C@@H](C)C(=O)N[C@H](C(=O)N1CC[C@@H]2[C@H]1[C@@H](C(=O)N[C@H]1CCCc3ccccc31)CN2S(C)(=O)=O)C(C)(C)C [Example 23, 4-[3,3-Dimethyl-2-(2-methylamino-propionylamino)-butyryl]-1-methanesulfonyl-octahydro-pyrrolo[3,2-b]pyrrole-3-carboxylic acid (1,2,3,4-tetrahydro-naphthalen-1-yl)-amide] | < 100 | < 100 | 100 to 1000
CN[C@@H](C)C(=O)N[C@H](C(=O)N1CC[C@@H]2[C@H]1[C@@H](C(=O)NCc1ccc(F)cc1)CN2S(C)(=O)=O)C1CCCCC1 [Example 3, 4-[2-Cyclohexyl-2-(2-methylamino-propionylamino)-acetyl]-1-methanesulfonyl-octahydro-pyrrolo[3,2-b]pyrrole-3-carboxylic acid 4-fluoro-benzylamide] | < 100 | < 100 | < 100
CN[C@@H](C)C(=O)N[C@H](C(=O)N1CC[C@@H]2[C@H]1[C@@H](C(=O)Nc1ccc(F)cc1)CN2C(=O)CNC(=O)C(=O)NCC(=O)N1C[C@H](C(=O)Nc2ccc(F)cc2)[C@@H]2[C@H]1CCN2C(=O)[C@@H](NC(=O)[C@H](C)NC)C(C)(C)C)C(C)(C)C [Example 54, N,N′-Bis-{2-[4-[3,3-dimethyl-2-(2-methylamino-propionylamino)-butyryl]-3-(4-fluoro-phenylcarbamoyl)-hexahydro-pyrrolo[3,2-b]pyrrol-1-yl]-2-oxo-ethyl}-oxalamide] | < 100 | < 100 | < 100
CN[C@@H](C)C(=O)N[C@H](C(=O)N1CC[C@@H]2[C@H]1[C@@H](C(=O)N[C@@H]1CCCc3ccccc31)CN2S(C)(=O)=O)C(C)(C)C [Example 27, 4-[3,3-Dimethyl-2-(2-methylamino-propionylamino)-butyryl]-1-methanesulfonyl-octahydro-pyrrolo[3,2-b]pyrrole-3-carboxylic acid (1,2,3,4-tetrahydro-naphthalen-1-yl)-amide] | < 100 | < 100 | < 100
CNC(=O)N1C[C@H](C(=O)NCc2ccc(F)cc2)[C@@H]2[C@H]1CCN2C(=O)[C@@H](NC(=O)[C@H](C)NC)C(C)(C)C [Example 41, 4-[3,3-Dimethyl-2-(2-methylamino-propionylamino)-butyryl]-hexahydro-pyrrolo[3,2-b]pyrrole-1,3-dicarboxylic acid 3-(4-fluoro-benzylamide) 1-methylamide] | < 100 | < 100 | < 100
CN[C@@H](C)C(=O)N[C@H](C(=O)N1CC[C@@H]2[C@H]1[C@@H](C(=O)N[C@@H](C)C1CCCCC1)CN2S(C)(=O)=O)C(C)(C)C [Example 28, 4-[3,3-Dimethyl-2-(2-methylamino-propionylamino)-butyryl]-1-methanesulfonyl-octahydro-pyrrolo[3,2-b]pyrrole-3-carboxylic acid (1S-cyclohexyl-ethyl)-amide] | < 100 | < 100 | < 100
CN[C@@H](C)C(=O)N[C@H](C(=O)N1CC[C@@H]2[C@H]1[C@@H](C(=O)Nc1ccc3ccccc3c1)CN2S(C)(=O)=O)C(C)(C)C [Example 25, 4-[3,3-Dimethyl-2-(2-methylamino-propionylamino)-butyryl]-1-methanesulfonyl-octahydro-pyrrolo[3,2-b]pyrrole-3-carboxylic acid naphthalen-2-ylamide] | < 100 | < 100 | < 100
CN[C@@H](C)C(=O)N[C@H](C(=O)N1CC[C@@H]2[C@H]1[C@@H](C(=O)Nc1cccc3ncccc13)CN2S(C)(=O)=O)C(C)(C)C [Example 47, 4-[3,3-Dimethyl-2-(2-methylamino-propionylamino)-butyryl]-1-methanesulfonyl-octahydro-pyrrolo[3,2-b]pyrrole-3-carboxylic acid quinolin-5-ylamide] | < 100 | < 100 | < 100
CN[C@@H](C)C(=O)N[C@H](C(=O)N1CC[C@@H]2[C@H]1[C@@H](C(=O)Nc1cccc3cnccc13)CN2S(C)(=O)=O)C(C)(C)C [Example 44, 4-[3,3-Dimethyl-2-(2-methylamino-propionylamino)-butyryl]-1-methanesulfonyl-octahydro-pyrrolo[3,2-b]pyrrole-3-carboxylic acid isoquinolin-5-ylamide] | 100 to 1000 | < 100 | < 100

Continued, in another order:

Kd [2] [nM] | Kd [3] [nM] | Structure (SMILES) | CC50 [1] [nM]
< 100 | < 100 | CN[C@@H](C)C(=O)N[C@H](C(=O)N1CC[C@@H]2[C@H]1[C@@H](C(=O)N[C@@H]1CCCc3ccccc31)CN2S(C)(=O)=O)C1CCCCC1 [Example 1, 4-[2-Cyclohexyl-2-(2-methylamino-propionylamino)-acetyl]-1-methanesulfonyl-octahydro-pyrrolo[3,2-b]pyrrole-3-carboxylic acid (1,2,3,4-tetrahydro-naphthalen-1-yl)-amide] | < 100
< 100 | < 100 | CN[C@@H](C)C(=O)N[C@H](C(=O)N1CC[C@@H]2[C@H]1[C@@H](C(=O)NCCc1ccccc1)CN2S(C)(=O)=O)C1CCCCC1 [Example 16, 4-[2-Cyclohexyl-2-(2-methylamino-propionylamino)-acetyl]-1-methanesulfonyl-octahydro-pyrrolo[3,2-b]pyrrole-3-carboxylic acid-phenethyl-amide] | 100 to 1000
100 to 1000 | < 100 | CN[C@@H](C)C(=O)N[C@H](C(=O)N1CC[C@@H]2[C@H]1[C@@H](C(=O)Nc1ccc3ccccc3c1)CN2S(C)(=O)=O)C1CCCCC1 [Example 18, 4-[2-Cyclohexyl-2-(2-methylamino-propionylamino)-acetyl]-1-methanesulfonyl-octahydro-pyrrolo[3,2-b]pyrrole-3-carboxylic acid naphthalen-2-ylamide] | < 100
100 to 1000 | 100 to 1000 | CN[C@@H](C)C(=O)N[C@H](C(=O)N1CC[C@@H]2[C@H]1[C@@H](C(=O)N1CCc3ccccc31)CN2S(C)(=O)=O)C1CCCCC1 [Example 15, N-{1-Cyclohexyl-2-[6-(2,3-dihydro-indole-1-carbonyl)-4-methanesulfonyl-hexahydro-pyrrolo[3,2-b]pyrrol-1-yl]-2-oxo-ethyl}-2-methylamino-propionamide] | < 100
< 100 | < 100 | CNC(C)C(=O)NC(C(=O)N1CCC2C1C(C(=O)NC1CCCc3ccccc31)CN2C(=O)C1CC1)C1CCCCC1 (stereo not drawn) [Example 33, 4-[2-Cyclohexyl-2-(2-methylamino-propionylamino)-acetyl]-1-cyclopropanecarbonyl-octahydro-pyrrolo[3,2-b]pyrrole-3-carboxylic acid (1,2,3,4-tetrahydro-naphthalen-1-yl)-amide] | < 100
100 to 1000 | < 100 | CN[C@@H](C)C(=O)N[C@H](C(=O)N1CC[C@H]2NC[C@@H](C(=O)Nc3ccccc3)[C@H]21)C1CCCCC1 [Example 32] | 1000 to 10000
